Assays:
[1] = molecular target: T1, purified P. aeruginosa NQR (Pa-NQR) (Pseudomonas aeruginosa, UniProt Q9HZL1); assay: ubiquinone reductase activity at […] nm; type: biochemical; conditions: 50 μM ubiquinone-1, KHE buffer pH 7.5
T1 construct: gene nqrF; […]; DDM-solubilized, Ni-NTA (tag not described) and DEAE purified; six-subunit complex; with Na(+)-translocating NADH-quinone reductase subunit A; Na(+)-translocating NADH-quinone reductase subunit B; Na(+)-translocating NADH-quinone reductase subunit C; Na(+)-translocating NADH-quinone reductase subunit D; Na(+)-translocating NADH-quinone reductase subunit E

NQR = molecular target: T2, NQR (Pseudomonas aeruginosa, UniProt Q9HZK7+Q9HZK9); assay: HQNO titration of NADH-dependent oxygen consumption in isolated membranes; type: biochemical
T2 construct: gene nqrB; native NQR complex in LB and mAUM membranes; with six-subunit complex NqrA-F
T2 sequence (Q9HZK9 whole entry): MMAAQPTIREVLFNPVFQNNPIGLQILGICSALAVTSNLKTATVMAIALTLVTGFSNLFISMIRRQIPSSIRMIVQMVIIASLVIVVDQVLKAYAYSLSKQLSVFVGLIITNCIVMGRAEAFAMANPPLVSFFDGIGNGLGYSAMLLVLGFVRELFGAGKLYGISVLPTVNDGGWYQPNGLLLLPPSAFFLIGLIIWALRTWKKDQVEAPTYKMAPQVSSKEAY
T2 sequence (Q9HZL1 whole entry, further chain): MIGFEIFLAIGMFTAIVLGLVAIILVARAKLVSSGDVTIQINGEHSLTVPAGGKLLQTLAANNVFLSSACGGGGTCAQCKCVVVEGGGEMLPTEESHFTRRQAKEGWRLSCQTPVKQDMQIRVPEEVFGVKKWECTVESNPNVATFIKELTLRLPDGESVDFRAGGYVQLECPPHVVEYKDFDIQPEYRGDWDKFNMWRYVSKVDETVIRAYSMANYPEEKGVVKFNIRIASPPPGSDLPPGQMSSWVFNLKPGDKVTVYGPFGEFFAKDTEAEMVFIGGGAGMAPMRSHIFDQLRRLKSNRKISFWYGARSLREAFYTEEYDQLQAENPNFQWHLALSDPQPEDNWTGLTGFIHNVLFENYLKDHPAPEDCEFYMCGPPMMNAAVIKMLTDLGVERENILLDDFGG
T2 sequence (Q9HZK7 whole entry): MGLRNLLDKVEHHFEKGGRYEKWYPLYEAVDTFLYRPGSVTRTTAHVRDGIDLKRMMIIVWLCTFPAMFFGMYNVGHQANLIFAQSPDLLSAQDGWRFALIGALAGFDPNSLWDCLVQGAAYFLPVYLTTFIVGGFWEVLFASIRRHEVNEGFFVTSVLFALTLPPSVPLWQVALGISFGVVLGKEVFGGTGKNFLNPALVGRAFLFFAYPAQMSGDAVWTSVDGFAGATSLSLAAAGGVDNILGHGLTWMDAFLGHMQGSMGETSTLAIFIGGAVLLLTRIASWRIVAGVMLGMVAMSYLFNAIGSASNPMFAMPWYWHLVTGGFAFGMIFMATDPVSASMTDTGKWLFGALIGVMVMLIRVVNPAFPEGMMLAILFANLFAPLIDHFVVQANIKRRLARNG
T2 sequence (Q9HZK6 whole entry, further chain): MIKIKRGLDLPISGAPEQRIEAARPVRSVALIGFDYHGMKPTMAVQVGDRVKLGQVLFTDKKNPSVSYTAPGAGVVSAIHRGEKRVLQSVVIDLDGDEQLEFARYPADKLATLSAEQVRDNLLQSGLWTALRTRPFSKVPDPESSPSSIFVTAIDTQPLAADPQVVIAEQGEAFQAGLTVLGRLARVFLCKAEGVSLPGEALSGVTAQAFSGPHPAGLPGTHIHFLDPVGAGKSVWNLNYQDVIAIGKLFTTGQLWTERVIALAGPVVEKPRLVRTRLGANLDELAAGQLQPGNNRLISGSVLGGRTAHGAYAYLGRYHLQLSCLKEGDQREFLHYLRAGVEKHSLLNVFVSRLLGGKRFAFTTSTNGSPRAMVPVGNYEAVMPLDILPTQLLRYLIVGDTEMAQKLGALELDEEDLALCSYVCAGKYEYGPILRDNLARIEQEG
T2 sequence (Q9HZL0 whole entry, further chain): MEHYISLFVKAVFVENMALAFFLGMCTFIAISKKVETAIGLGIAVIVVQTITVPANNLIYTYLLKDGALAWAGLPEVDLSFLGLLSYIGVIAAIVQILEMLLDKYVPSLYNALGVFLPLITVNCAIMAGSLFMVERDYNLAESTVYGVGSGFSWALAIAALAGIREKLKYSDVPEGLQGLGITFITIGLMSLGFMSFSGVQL
T2 sequence (Q9HZK8 whole entry, further chain): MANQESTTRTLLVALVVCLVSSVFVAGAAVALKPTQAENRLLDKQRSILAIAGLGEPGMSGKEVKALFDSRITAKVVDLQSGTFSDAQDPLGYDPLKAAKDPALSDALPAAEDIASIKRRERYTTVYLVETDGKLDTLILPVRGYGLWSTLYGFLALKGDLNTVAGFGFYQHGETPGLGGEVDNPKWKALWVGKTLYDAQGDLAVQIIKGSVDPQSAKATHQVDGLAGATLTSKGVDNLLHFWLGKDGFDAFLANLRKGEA

T1 sequence (Q9HZL1 whole entry): as the sequence (Q9HZL1 whole entry, further chain) above
T1 sequence (Q9HZK6 whole entry partner): as the sequence (Q9HZK6 whole entry, further chain) above
T1 sequence (Q9HZK7 whole entry partner): as the sequence (Q9HZK7 whole entry) above
T1 sequence (Q9HZK8 whole entry partner): as the sequence (Q9HZK8 whole entry, further chain) above
T1 sequence (Q9HZK9 whole entry partner): as the sequence (Q9HZK9 whole entry) above
T1 sequence (Q9HZL0 whole entry partner): as the sequence (Q9HZL0 whole entry, further chain) above

NC(=O)C1=CN([C@@H]2O[C@H](COP(=O)(O)OP(=O)(O)OC[C@H]3O[C@@H](n4cnc5c(N)ncnc54)[C@H](O)[C@@H]3O)[C@@H](O)[C@H]2O)C=CC1 [NADH]
ubiquinone reductase activity at 282 nm ([1]; 250 μM NADH): purified P. aeruginosa NQR (F) using as substrates NADH (black) or deamino NADH

NC(=O)C1=CN([C@@H]2O[C@H](COP(=O)(O)OP(=O)(O)OC[C@H]3O[C@@H](n4cnc5c(=O)[nH]cnc54)[C@H](O)[C@@H]3O)[C@@H](O)[C@H]2O)C=CC1 [deamino NADH]
ubiquinone reductase activity at 282 nm ([1]; 250 μM deamino NADH): purified P. aeruginosa NQR (F) using as substrates NADH (black) or deamino NADH

CCCCCCCc1cc(O)c2ccccc2[n+]1[O-] [HQNO]
Ki (NQR): 2000 nM

From PMC7179901, “The aerobic respiratory chain of Pseudomonas aeruginosa cultured in artificial urine media: Role of NQR and terminal oxidases” (PLoS ONE, 2020)
